{"source": "patent US20140242609A1", "about": "“Diagnosis and treatment of kidney stones, methods and compositions therefor” (Washington University, priority 2013, published 2014)", "key": {"miR-9-1 promoter": {"tested_on": "miR-9-1 promoter", "assay": "ChIP over miR-9-1 promoter in TALH cells of treated mice", "assay_type": "in vivo, mouse", "conditions": "for fold enrichment of NFATc1 over miR-9-1 promoter region: versus vehicle", "method": "(§1) Freshly isolated TALH cells or primary TALH cell cultures were cross-linked in 1% paraformaldehyde (pH7.0) for 10 min at room temperature. The cross-linked cells were lysed following to instruction of MAGnify ChIP system (Invitrogen). Chromatin was sonicated into 500 bp fragments with Bioruptor UCD-200 (High power, 15 cycles of 30 seconds ON, 30 seconds OFF; Diagenode). Sheared chromatin was precipitated with antibody-bound Dynabeads (Invitrogen). Following reverse crosslink and DNA extraction, antibody-bound DNA was eluted and analyzed with real-time PCR. Two criteria for normalization were applied: fold enrichment over anti-IgG background signal and input control over chromatin input signal.\nas §1, with “OFF,” for “OFF;”"}, "claudin-14 mRNA": {"tested_on": "claudin-14 mRNA", "assay": "claudin-14 mRNA levels in mouse kidney after systemic treatment (real-time PCR)", "assay_type": "in vivo", "conditions": "for claudin-14 mRNA, change: 30 mg/kg BW−1 per day for 6 days, 24 hrs following the last treatment; for claudin-14 mRNA relative to control level: by 8 hrs and through to 12 hrs", "method": "NPS2143 and cinacalcet (Table 1) were dissolved in vehicle—20% (w/v) (2-Hydroxypropyl)-β-cyclodextrin solution and fed to mice with gavage syringe. Cyclosporin-A (Sandimmune; Table 1) was diluted in 0.9% saline and I.P. injected to animals. Control animals received vehicle injection (13% wiv Cremophor EL and 32.9% ethanol). For dietary Ca^2+ manipulation, animals were fed with the following diets for six consecutive days: basal diet: 0.61% Ca^2+ (TestDiet #5755); low Ca^2+ diet: 0 Ca^++ (TestDiet #5855); high Ca^2+ diet: 5% Ca^2+ (TestDiet #5AVB). All animals had free access to water and were housed under a 12 hr light cycle. Blood samples were taken by cardiac puncture rapidly after initiation of terminal anesthesia and centrifuged at 4° C. for 10 min. Kidney were dissected out and immediately frozen at −80° C.\n(§2) Total RNA including microRNA was extracted using Trizol (Invitrogen). Cellular mRNA was reverse transcribed using the Superscript-III kit (Invitrogen), followed by real-time PCR amplification using SYBR Green PCR Master Mix (Bio-Rad) and Eppendorf Realplex2S system. The design of claudin-14 primers was described above. The design of pri-miRNA primers was according to Ma et al., (2010). Results were expressed as 2^−ΔCt values with ΔCT=Ctgene−Ctβ-actin.\nSAHA and TsA were dissolved in 5% (w/v) ethanol/0.9% saline solution and fed to mice with gavage syringe. Furosemide was dissolved in 50% (w/v) DMSO/0.9% saline solution and I.P. injected to animals. All animals had free access to water and were housed under a 12 hr light cycle. Blood samples were taken by cardiac puncture rapidly after initiation of terminal anesthesia and centrifuged at 4° C. for 10 min. Kidney were dissected out and immediately frozen at −80° C.\nTotal RNA including microRNA was extracted using Trizol (Invitrogen). Cellular mRNA was reverse transcribed using the Superscript-III kit (Invitrogen), followed by real-time PCR amplification using SYBR Green PCR Master Mix (Bio-Rad) and Eppendorf Realplex2S system. The design of claudin-14 primers was described before by Gong et al., 2012. The design of pri-miRNA primers and ChIP primers was according to Gong et al., 2013. Results were expressed as 2^−ΔCt values with ΔCT=Ctgene−Ctβ-actin. […]\nNPS2143 and cinacalcet (Table 9) were dissolved in vehicle −20% (w/v) (2-Hydroxypropyl)-β-cyclodextrin solution and fed to mice with gavage syringe. Cyclosporin-A (Sandimmune; Table 9) was diluted in 0.9% saline and I.P. injected to animals. Control animals received CNI vehicle injection (13% wiv Cremophor EL and 32.9% ethanol). FK506 was dissolved in CNI vehicle, diluted in 0.9% saline and I.P. injected to animals. For dietary Ca^+ manipulation, animals were fed with the following diets for six consecutive days: basal diet: 0.610% Ca^++ (TestDiet #5755); low Ca^++ diet: 0 Ca^++ (TestDiet #5855); high Ca^++ diet: 5% Ca^+ (TestDiet #5AVB). All animals had free access to water and were housed under a 12 hr light cycle. Blood samples were taken by cardiac puncture rapidly after initiation of terminal anesthesia and centrifuged at 4° C. for 10 min. Kidney were dissected out and immediately frozen at −80° C.\nTotal RNA including microRNA was extracted using Trizol (Invitrogen). Cellular mRNA was reverse transcribed using the Superscript-III kit (Invitrogen), followed by real-time PCR amplification using SYBR Green PCR Master Mix (Bio-Rad) and Eppendorf Realplex2S system. The design of claudin-14 primers was described before by Gong. Y., et al., 2012. The design of pri-miRNA primers was according to Ma. L., et al., 2010. Results were expressed as 2^−ΔCt values with ΔCT=Ctgene−Ctβ-actin."}, "PTH": {"tested_on": "PTH", "assay": "plasma PTH levels after NPS2143 or cinacalcet", "assay_type": "in vivo, mouse", "conditions": "for Plasma PTH level, course: 8 hrs versus 2 hr; for PTH response: cyclosporine-A pre-treated"}, "pri-miR-9-3": {"tested_on": "pri-miR-9-3", "assay": "pri-miR-9-3 transcript levels in TALH of treated mouse kidneys (real-time PCR)", "assay_type": "in vivo", "conditions": "30 mg/kg BW−1; 2 hrs or 8 hrs", "source_text": "as §2\nTo measure the transcriptional level for microRNA gene in vivo in the kidney, the inventors designed primers (see Methods; Table 2) to amplify the pri-miRNA molecule, the original transcript for microRNA gene that had not yet been subjected to any nuclear or cellular processing. Because both miR-9 and miR-374 had broader localization profiles along the nephron, the inventors isolated the TALH tubular cells for pri-miRNA analyses from the mouse kidney described elsewhere in this study. WT mice (strain: C57BL/6) were treated with NPS2143 or cinacalcet as described for claudin-14 analyses and assayed for pri-miRNA levels in isolated TALH cells at 2 hrs and 8 hrs respectively. […] NPS2143 and cinacalcet also profoundly regulated pri-miR-374. […]\nTotal RNA including microRNA was extracted using Trizol (Invitrogen). […] Results were expressed as 2^−ΔCt values with ΔCT=Ctgene−Ctβ-actin."}, "[1]": {"conditions": "WT, at both 2 hrs and 8 hrs, 30 mg/kg BW−1, versus vehicle"}, "[2]": {"conditions": "TPTX mice, single dose 30 mg/kg BW−1, 2 hrs"}, "[3]": {"conditions": "cyclosporine-A pre-treated animals, 30 mg/kg BW−1, 2 hrs"}, "[4]": {"conditions": "second dose 30 mg/kg BW−1 at 12 hrs, measured at 14 hrs"}, "[5]": {"conditions": "single oral dose 30 mg/kg BW−1, 30 mg/kg"}}, "note": "Values joined by “and” are separate entries in the source; they are usually repeats but may differ in a detail not shown here. Identical values can stand only once. “Also recorded” adds a separate entry of the source.", "data": [{"smiles": "O=C(CCCCCCC(=O)Nc1ccccc1)NO", "note": "[SAHA, Suberanilohydroxamic acid]", "values": [{"measurement": "H3K9 and H3K14 acetylation, miR-9-1 promoter, increase", "setting": "miR-9-1 promoter; 25 mg/kg BW−1, 4 hrs", "value": 2.40, "unit": "fold"}, {"measurement": "NFAT binding to miR-9-1 promoter", "setting": "miR-9-1 promoter; 25 mg/kg BW−1, 4 hrs", "value": "not affected"}, {"measurement": "CLDN14 mRNA, dose response", "setting": "claudin-14 mRNA; 5 mg/kg to 25 mg/kg, 4 hrs", "value": "downregulation of CLDN14 at dosage as low as 5 mg/kg"}, {"measurement": "effects on CLDN14 mRNA in the kidney", "setting": "claudin-14 mRNA; 25 mg/kg BW−1, 12 hrs", "value": "dissipated"}, {"measurement": "reduction of CLDN14 expression in the kidney", "setting": "claudin-14 mRNA; 25 mg/kg BW−1, by 4 hrs and through to at least 8 hrs", "value": "persisted"}, {"measurement": "CLDN14 mRNA levels in the kidney, reduction", "setting": "claudin-14 mRNA; single dose 25 mg/kg BW−1, 2 hrs", "value": 56, "unit": "%"}]}, {"smiles": "CC(C)(Cc1ccc2ccccc2c1)NC[C@@H](O)COc1cccc(Cl)c1C#N", "note": "[NPS2143]", "values": [{"measurement": "Plasma PTH level, course", "setting": "PTH; WT", "value": "started to return towards baseline"}, {"measurement": "plasma PTH levels", "setting": "PTH; [1]", "value": "significantly affected"}, {"measurement": "plasma PTH levels", "setting": "PTH; claudin-14 KO animals, 2 hrs", "value": "significant increases in plasma PTH levels"}, {"measurement": "PTH response", "setting": "PTH; 2 hrs", "value": "intact PTH response"}, {"measurement": "H3K9 and H3K14 acetylation levels, miR-9-1 promoter region", "setting": "miR-9-1 promoter; 30 mg/kg BW−1, 2 hrs, higher than vehicle level", "value": 2.43, "unit": "fold"}, {"measurement": "fold enrichment of NFATc1 over miR-9-1 promoter region", "setting": "miR-9-1 promoter; 30 mg/kg BW−1, 2 hrs", "value": 3.55, "unit": "fold"}, {"measurement": "claudin-14 mRNA levels, reduction (dose response)", "setting": "claudin-14 mRNA; 15 mg/kg BW−1, 2 hrs", "value": 45, "unit": "%"}, {"measurement": "claudin-14 mRNA levels, reduction (dose response)", "setting": "claudin-14 mRNA; 30 mg/kg BW−1, 2 hrs", "value": 82, "unit": "%"}, {"measurement": "claudin-14 mRNA, change", "setting": "claudin-14 mRNA", "value": "Neither NPS2143 nor cinacalcet caused changes"}, {"measurement": "claudin-14 mRNA levels, reduction (dose response)", "setting": "claudin-14 mRNA; 45 mg/kg BW−1, 2 hrs", "value": 89, "unit": "%"}, {"measurement": "claudin-14 gene expression, downregulation", "setting": "claudin-14 mRNA; [2]", "value": 35, "unit": "%"}, {"measurement": "claudin-14 mRNA levels, change", "setting": "claudin-14 mRNA; [3]", "value": "failed to elicit any significant change"}, {"measurement": "claudin-14 mRNA levels, reduction", "setting": "claudin-14 mRNA; [4]", "value": 77, "unit": "%"}, {"measurement": "claudin-14 mRNA level, downregulation", "setting": "claudin-14 mRNA; single oral dose 30 mg/kg BW−1, 2 hrs, versus vehicle", "value": 80, "unit": "%"}, {"measurement": "claudin-14 mRNA, percent of control level", "setting": "claudin-14 mRNA; single oral dose 30 mg/kg BW−1, 4 hrs", "value": 78, "unit": "%"}, {"measurement": "claudin-14 mRNA relative to control level", "setting": "claudin-14 mRNA; [5]", "value": "completely recovered to its control level; also recorded: no significant change"}, {"measurement": "pri-miR-9-3 level, change", "setting": "pri-miR-9-3", "value": "Neither pri-miR-9-2 (FIG. 12B) nor pri-miR-9-3 level (FIG. 12C) was significantly altered; also recorded: Neither pri-miR-9-2 (FIG. 29B) nor pri-miR-9-3 level (FIG. 29C) was significantly altered"}]}, {"smiles": "C[C@@H](NCCCc1cccc(C(F)(F)F)c1)c1cccc2ccccc12", "note": "[cinacalcet]", "values": [{"measurement": "Plasma PTH level, course", "setting": "PTH; WT", "value": "continued to suppress plasma PTH levels"}, {"measurement": "plasma PTH levels", "setting": "PTH; [1]", "value": "significantly affected"}, {"measurement": "plasma PTH levels", "setting": "PTH; claudin-14 KO animals, 2 hrs", "value": "suppressed PTH levels"}, {"measurement": "PTH response", "setting": "PTH; 2 hrs", "value": "intact PTH response"}, {"measurement": "fold enrichment of NFATc1 over miR-9-1 promoter region", "setting": "miR-9-1 promoter; 30 mg/kg BW−1, 2 hrs", "value": "without significant effect"}, {"measurement": "claudin-14 expression, induction (dose response)", "setting": "claudin-14 mRNA; 15 mg/kg BW−1, 2 hrs", "value": 2.33, "unit": "fold"}, {"measurement": "claudin-14 expression, induction (dose response)", "setting": "claudin-14 mRNA; 30 mg/kg BW−1, 2 hrs", "value": 3.17, "unit": "fold"}, {"measurement": "claudin-14 mRNA, change", "setting": "claudin-14 mRNA", "value": "Neither NPS2143 nor cinacalcet caused changes"}, {"measurement": "claudin-14 expression, induction (dose response)", "setting": "claudin-14 mRNA; 45 mg/kg BW−1, 2 hrs", "value": 6.38, "unit": "fold"}, {"measurement": "claudin-14 expression levels, upregulation", "setting": "claudin-14 mRNA; [2]", "value": 3.41, "unit": "fold"}, {"measurement": "claudin-14 mRNA levels, increase", "setting": "claudin-14 mRNA; [3]", "value": 1.73, "unit": "fold"}, {"measurement": "claudin-14 mRNA levels, increase", "setting": "claudin-14 mRNA; [4]", "value": 3.23, "unit": "fold"}, {"measurement": "claudin-14 mRNA level, upregulation", "setting": "claudin-14 mRNA; single oral dose 30 mg/kg BW−1, 2 hrs, intact mice, versus vehicle", "value": 3.3, "unit": "fold"}, {"measurement": "claudin-14 mRNA level, upregulation (ceiling)", "setting": "claudin-14 mRNA; single oral dose 30 mg/kg BW−1, 4 hrs, versus vehicle, 30 mg/kg", "value": "3.97 fold and 3.98 fold"}, {"measurement": "claudin-14 mRNA relative to control level", "setting": "claudin-14 mRNA; [5]", "value": "recovered to its control level; also recorded: no significant change"}, {"measurement": "pri-miR-9-3 level, change", "setting": "pri-miR-9-3", "value": "Neither pri-miR-9-2 (FIG. 12B) nor pri-miR-9-3 level (FIG. 12C) was significantly altered; also recorded: Neither pri-miR-9-2 (FIG. 29B) nor pri-miR-9-3 level (FIG. 29C) was significantly altered"}]}]}
